Test results from paper PMC12830989, “Subcellular glycan-mannose receptor binding kinetics correlate with myeloid cell function” (Nature Communications, 2025).
Values joined by “and” are separate entries in the source; they are usually repeats but may differ in a detail not shown here. Equal values may be shown once. sCy5 = sulfo-Cy5

Legend:
[1] = test system: bone-marrow derived mouse dendritic cells (BMDCs); test: Glyco-PAINT-APP single-molecule glycan binding on live WT BMDC; settings: for koff−1 / kon: Suppl. Fig 9, glycan SLP, median; for population of squares with binding events of high mobility (high diffusion coefficient) and low event density (kon), uniquely present for WT cells: WT BMDC versus MR-/- BMDC, Fig 4a, b; for event density, dwell time and diffusion coefficient after CytD treatment: Cytochalasin D treated versus untreated
Protocol: (§1) Single molecule imaging was performed on a Nikon Ti2 N-STORM system equipped with TIRF module, Z piezo element, perfect focus system for axial drift correction and an OkoLab incubator with temperature and CO2 controller (37 °C and 5% CO2) for live-cell imaging. Recordings were acquired using the 647 nm excitation laser (160 mW, 1.9 kW/cm^2). Upon laser excitation, fluorescence was collected by a 100x 1.49 NA oil-immersion objective, passed through a quad-band dichroic mirror (97335 Nikon), and detected by a Hamamatsu ORCA Flash 4.0 CMOS camera with 160 nm pixel size. The signal was collected using the following settings: 512 × 512 pixel region, no binning, pixel depth 16-bit, exposure time 50 ms, live-cell observation and 2D-STORM (lens out), zoom 1x, lens x0.4, and for live-cell observation at 37 °C, the correction collar was set to position 8160.
(§2) 5 x 10^4 CHO-MR or 1 x 10^5 WT, MR^−/− BMDC or BMDM were seeded in 8-well glass-bottomed microscopy slides (Ibidi, 80827) in complete medium. After equilibration in the microscope incubator, fluorescent glycan was added at 5 nM for CHO-MR and 10 nM for BMDC or BMDM experiments. Then, cells were brought into focus using brightfield illumination and 2000 frames (at 50 ms intervals) were recorded within a single field-of-view at 40–60% of maximum 647 nm laser power using TIRF illumination. For indicated experiments, Cytochalasin D (Focus Biomolecules) was added to a final concentration of 10 µM for 30 min prior to acquisition.
(§3) Processing of recordings using Glyco-PAINT-APP was performed as described in a step-by-step procedure in the Supplementary Software Manual in the Supplementary Information and accompanying Supplementary Videos 1 and 2. For the TrackMate processing, a batch file (Experiment Info.csv) containing the experiment metadata and tracking parameters was created. Threshold values were set to 5, 10 or 15 such that no more than 1.500.000 spots were detected. Recordings were then processed in TrackMate using the ‘Run TrackMate Batch’ plugin provided by the Glyco-PAINT-APP. Through this plugin, spot detection and tracking by TrackMate[70] was performed as indicated in the batch file using the Simple LAP tracker algorithm with a maximum frame gap of 3, a max linking distance of 0.6 μm and a gap closing max distance of 1.2 μm. Tracks with only two spots were discarded. For the parameter sensitivity analysis, each tracking or spot detection was varied as indicated, whilst the others were kept at aforementioned values (Basis scenario).
(§4) With the Glyco-PAINT-APP utility ‘Generate Squares’, a grid of squares was overlaid, and kinetic properties for each square were calculated. Default parameters for grid processing are (deviations are mentioned in figure captions): Nr of Squares in row 20, Minimum Tracks to Calculate Tau 20, Min allowable R Squared 0.1, Min Required Density Ratio 2, Maximum Allowable Variability 10 and Neighbour Mode Free.
(§5) For every recording, a background track count was calculated by averaging the track count of the 40 (10% of the total number of squares) least dense squares. Only squares for which the track count exceeded the Min Required Density Ratio of 2 were considered (and the remaining ignored as background). For each square, the variability was calculated and only squares for which the variability was less than the Maximum Allowable Variability of 10 were considered. For squares meeting both the Minimum Required Density Ratio and Maximum Allowable Variability criteria, and containing at least the Minimum Tracks to Calculate Tau kinetic parameters, including kon, koff and MSD were calculated as in Riera et al.[10], or copied from the TrackMate Tracks table output (for velocity, displacement, and track duration).

MR^−/− BMDC = test: Glyco-PAINT-APP single-molecule glycan binding on live MR-/- BMDC; set-up: species or system mouse; settings: Suppl. Fig 9, glycan SLP, median
Protocol: as §1, §2, §3, §4, §5

WT BMDC (CD11c+) = test: Glycan SLP uptake by flow cytometry (phagocytic index), WT BMDC; type: cell-based, mouse; settings: for phagocytic index: Fig 4d source data, BMDC incubated 1 h with probe, CD11c+ cells, per experiment, two technical replicates
Protocol: 2.5 x 10^5 WT, MR^−/− BMDC or BMDM were seeded after treatment with polarizing stimulus as described below in a 96 well v-bottom plate (Sarstedt, 82.1583001). The next day, Glycan SLP probes were added to the cells at 250 nM and incubated for 1 h at 37 °C. Active uptake was halted by addition of ice-cold PBS and washed twice with PBS + 2% FCS + 2 mM EDTA (300 rcf, 5 min., rt). Cells were stained with a selection of the following stains and antibodies: Zombie Yellow (Biolegend, 423103, 1:500), TruStain FcX (Biolegend, cat no 101319, 1:100), CD11c - eFluor450 (clone: N418, eBioscience, cat no 48-0114-82, dilution 1:200), CD206-AF488 or AF647 (clone: MR5D3, Biorad, MCA2235A488T, 1:20), CD86-PerCP (Biolegend, cat no 105025, clone GL-1, 1:200), F4/80-APC-Cy7 (Biolegend, cat no 123117, clone BM8, dilution 1:400), MHC-II-AF488 (Biolegend, cat no 107615, clone M5/114.15.2, dilution 1:1000) for 30 min. on ice. Then cells were washed twice with PBS + 2% FCS + 2 mM EDTA and acquired on Guava EasyCyte 12HT. For BMDM uptake and characterization, an identical procedure was followed but acquisition was performed on Sony ID7000 spectral flow cytometer. Analysis was performed using FlowJo v8. Phagocytic index (PI) was calculated according to equation 1. Statistical analysis and plotting were performed using GraphPad Prism V10.1 PI=%sCy5^+cellsxMFIsCy5^+cells−%sCy5^−cellsxMFIsCy5^−cells

Row | Substance | koff−1 (MR^−/− BMDC) | kon (MR^−/− BMDC) | koff−1 ([1]; BMDC + CytD) | kon ([1]; BMDC + CytD) | koff−1 ([1]; BMDC) | kon ([1]; BMDC) | population of squares with binding events of high mobility (high diffusion coefficient) and low event density (kon), uniquely present for WT cells [1] | phagocytic index (WT BMDC (CD11c+)) | event density, dwell time and diffusion coefficient after CytD treatment ([1]; BMDC) | uptake (phagocytic index) by BMDC (WT BMDC (CD11c+); 1 h incubation, sCy5 signal by flow cytometry)
1 | Ac-Lys(Man)-Gly-Lys(Man)-TEG-Asp-Glu-Val-Ser-Gly-Leu-Glu-Gln-Leu-Glu-Ser-Ile-Ile-Asn-Phe-Glu-Lys-Leu-Ala-Ala-Ala-Ala-Ala-Lys(sCy5)-NH2 ({Ac-K(Man)-Gly-K(Man)-TEG}-DEVSGLEQLESIINFEKLAAAAAK(sCy5)-NH2) [2 Mono(2), bivalent monomannosylated OVA SLP with sulfo-Cy5] | 151 ms | 2 evts μm−2 sec−1 | 81 ms | 3 evts μm−2 sec−1 | 96 ms | 2.4 evts μm−2 sec−1 | most prominent | 468.878 and 326.94 and 575.997 and 867.184 and 474 and -18 |  | 
2 | Ac-Lys(triMan)-TEG-Asp-Glu-Val-Ser-Gly-Leu-Glu-Gln-Leu-Glu-Ser-Ile-Ile-Asn-Phe-Glu-Lys-Leu-Ala-Ala-Ala-Ala-Ala-Lys(sCy5)-NH2 (DEVSGLEQLESIINFEKLAAAAAK; Ac-Lys(triMan)-TEG, sulfo-Cy5, C-amide; printed: Asp-Glu-Val-Ser-Gly-Leu-Glu-Gln-Leu-Glu-Ser-Ile-Ile-Asn-Phe-Glu-Lys-Leu-Ala-Ala-Ala-Ala-Ala-Lys) [1 Tri(4), monovalent trimannosylated OVA SLP with sulfo-Cy5] | 160 ms | 6 evts μm−2 sec−1 | 124 ms | 1.5 evts μm−2 sec−1 | 88 ms | 1 evts μm−2 sec−1 |  | 866.48 and 744.547 and 660.373 and 1168.46 and 1459 and 1224 | increased significantly | 
3 | Ac-Lys(Man)-TEG-Asp-Glu-Val-Ser-Gly-Leu-Glu-Gln-Leu-Glu-Ser-Ile-Ile-Asn-Phe-Glu-Lys-Leu-Ala-Ala-Ala-Ala-Ala-Lys(sCy5)-NH2 ({Ac-K(Man)-TEG}-DEVSGLEQLESIINFEKLAAAAAK(sCy5)-NH2) [1 Mono(1), monovalent monomannosylated OVA SLP with sulfo-Cy5] | 182 ms | 6.2 evts μm−2 sec−1 | 98 ms | 4.3 evts μm−2 sec−1 | 87 ms | 0.9 evts μm−2 sec−1 | not | 18.2246 and 7.8718 and 19.8915 and 23.9776 and -43 and 24 |  | 

Second part, led by results:

Row | koff−1 (MR^−/− BMDC) | kon (MR^−/− BMDC) | Substance | koff−1 ([1]; BMDC + CytD) | kon ([1]; BMDC + CytD) | koff−1 ([1]; BMDC) | kon ([1]; BMDC) | population of squares with binding events of high mobility (high diffusion coefficient) and low event density (kon), uniquely present for WT cells [1] | phagocytic index (WT BMDC (CD11c+)) | event density, dwell time and diffusion coefficient after CytD treatment ([1]; BMDC) | uptake (phagocytic index) by BMDC (WT BMDC (CD11c+); 1 h incubation, sCy5 signal by flow cytometry)
4 | 115 ms | 1.1 evts μm−2 sec−1 | Ac-Lys(triMan)-Lys(triMan)-Lys(triMan)-Lys(triMan)-Lys(triMan)-Lys(triMan)-TEG-Asp-Glu-Val-Ser-Gly-Leu-Glu-Gln-Leu-Glu-Ser-Ile-Ile-Asn-Phe-Glu-Lys-Leu-Ala-Ala-Ala-Ala-Ala-Lys(sCy5)-NH2 (DEVSGLEQLESIINFEKLAAAAAK; six Lys(triMan), TEG, sulfo-Cy5, C-amide; printed: Asp-Glu-Val-Ser-Gly-Leu-Glu-Gln-Leu-Glu-Ser-Ile-Ile-Asn-Phe-Glu-Lys-Leu-Ala-Ala-Ala-Ala-Ala-Lys) [6 Tri(6), hexavalent trimannosylated OVA SLP with sulfo-Cy5] | 74 ms | 1.6 evts μm−2 sec−1 | 68 ms | 2.3 evts μm−2 sec−1 | most prominent | 418.118 and 415.333 and 1097.76 and 913.574 and 294 and 434 |  | 
5 | 141 ms | 4.6 evts μm−2 sec−1 | Ac-Lys(triMan)-Gly-Lys(triMan)-TEG-Asp-Glu-Val-Ser-Gly-Leu-Glu-Gln-Leu-Glu-Ser-Ile-Ile-Asn-Phe-Glu-Lys-Leu-Ala-Ala-Ala-Ala-Ala-Lys(sCy5)-NH2 (DEVSGLEQLESIINFEKLAAAAAK; two Lys(triMan), TEG, sulfo-Cy5, C-amide; printed: Asp-Glu-Val-Ser-Gly-Leu-Glu-Gln-Leu-Glu-Ser-Ile-Ile-Asn-Phe-Glu-Lys-Leu-Ala-Ala-Ala-Ala-Ala-Lys) [2 Tri(5), bivalent trimannosylated OVA SLP with sulfo-Cy5] | 112 ms | 7 evts μm−2 sec−1 | 69 ms | 1.1 evts μm−2 sec−1 | not | 739.67 and 711.569 and 1725.6 and 1909.99 and 2022 and 1371 | increased significantly | most effectively taken up
6 | 180 ms | 6.3 evts μm−2 sec−1 | Ac-Lys(Man)-Lys(Man)-Lys(Man)-Lys(Man)-Lys(Man)-Lys(Man)-TEG-Asp-Glu-Val-Ser-Gly-Leu-Glu-Gln-Leu-Glu-Ser-Ile-Ile-Asn-Phe-Glu-Lys-Leu-Ala-Ala-Ala-Ala-Ala-Lys(sCy5)-NH2 ({Ac-K(Man)-K(Man)-K(Man)-K(Man)-K(Man)-K(Man)-TEG}-DEVSGLEQLESIINFEKLAAAAAK(sCy5)-NH2) [6 Mono(3), hexavalent monomannosylated OVA SLP with sulfo-Cy5] | 116 ms | 2 evts μm−2 sec−1 | 76 ms | 2.1 evts μm−2 sec−1 | most prominent | 351.961 and 267.849 and 647.297 and 867.13 and 676 and 415 |  | 
